In patent US20240217963A1, “RECEPTOR-INTERACTING PROTEIN 1 INHIBITORS, PREPARATIONS, AND USES THEREOF” (SIRONAX LTD., priority 2021, published 2024):

biological target: T1, RIP1 (Homo sapiens, UniProt Q13546); assay: Cellular RIP1 inhibitory activity: HT-29 necroptosis (TNFα/SMAC mimetic/zVAD-FMK) CellTiter-Glo viability assay; type: cell-based; settings: HT-29 cells, TNF-α 10 ng/ml + SMAC mimetic 6 μM + zVAD-FMK 10 μM, 20 hours, geometric mean, read-out: EC50 Values of in vitro Cellular RIP1 Inhibitory Activity
T1 sequence (Q13546 1-671): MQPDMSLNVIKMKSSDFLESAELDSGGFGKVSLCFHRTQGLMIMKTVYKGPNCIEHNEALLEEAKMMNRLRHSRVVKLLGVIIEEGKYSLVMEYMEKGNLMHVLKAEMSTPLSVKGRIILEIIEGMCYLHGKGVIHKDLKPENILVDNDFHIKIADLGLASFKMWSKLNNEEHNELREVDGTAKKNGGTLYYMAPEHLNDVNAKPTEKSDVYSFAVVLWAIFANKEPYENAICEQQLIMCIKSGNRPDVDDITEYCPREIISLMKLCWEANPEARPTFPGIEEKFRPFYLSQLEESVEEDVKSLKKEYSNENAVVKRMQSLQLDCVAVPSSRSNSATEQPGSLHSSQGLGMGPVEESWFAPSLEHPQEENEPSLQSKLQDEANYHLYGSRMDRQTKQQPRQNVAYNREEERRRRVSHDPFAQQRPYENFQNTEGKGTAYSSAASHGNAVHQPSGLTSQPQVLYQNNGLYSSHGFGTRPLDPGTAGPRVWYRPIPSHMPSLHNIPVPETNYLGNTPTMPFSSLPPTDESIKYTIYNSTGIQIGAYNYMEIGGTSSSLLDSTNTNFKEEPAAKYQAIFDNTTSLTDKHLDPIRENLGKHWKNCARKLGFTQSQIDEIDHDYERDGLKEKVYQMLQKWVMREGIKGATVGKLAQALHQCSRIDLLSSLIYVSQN

| Structure (SMILES) | EC50 |
| --- | --- |
| Cc1cnn(C)c1-c1nc(N2CCC(C(=O)N(C)Cc3ccn(C)n3)CC2)ncc1F [Compound 81, 1-(4-(1,4-dimethyl-1H-pyrazol-5-yl)-5-fluoropyrimidin-2-yl)-N-methyl-N-((1-methyl-1H-pyrazol-3-yl)methyl)piperidine-4-carboxamide] | 0.1 to 100 nM |
| Cc1cnn(C)c1-c1cc(N2CCC(C(=O)NCc3cc(F)cc(F)c3)CC2)ncn1 [Compound 42, N-(3,5-difluorobenzyl)-1-(6-(1,4-dimethyl-1H-pyrazol-5-yl)pyrimidin-4-yl)piperidine-4-carboxamide] | 100 to 1000 nM |
| Cc1cnn(C)c1-c1nc(N2CCC(C(=O)N(O)Cc3cncn3C)CC2)ncc1F [Compound 40, 1-(4-(1,4-dimethyl-1H-pyrazol-5-yl)-5-fluoropyrimidin-2-yl)-N-hydroxy-N-((1-methyl-1H-imidazol-5-yl)methyl)piperidine-4-carboxamide] | 1000 to 10000 nM |
